ChEMBL document CHEMBL1138646, “Carbonic anhydrase inhibitors: inhibition of the membrane-bound human isozyme IV with anions” (Bioorg Med Chem Lett, 2004)
Values joined by “and” are separate entries in the source; they are usually repeats but may differ in a detail not shown here. Equal entries are not always repeated.

Experiments:
Carbonic anhydrase V [1] = molecular target: T1, Carbonic anhydrase V (Homo sapiens, UniProt Q9Y2D0+P35218); format: protein assay
Description: Inhibition constant of anion against human carbonic anhydrase isozyme hCA V

Carbonic anhydrase 9 = Carbonic anhydrase 9 (Homo sapiens, UniProt Q16790)
Description: Inhibition constant of anion against human carbonic anhydrase isozyme hCA IX

Carbonic anhydrase 4 [2] = molecular target: T2, Carbonic anhydrase 4 (Homo sapiens, UniProt P22748)
T2 sequence (P22748 whole entry): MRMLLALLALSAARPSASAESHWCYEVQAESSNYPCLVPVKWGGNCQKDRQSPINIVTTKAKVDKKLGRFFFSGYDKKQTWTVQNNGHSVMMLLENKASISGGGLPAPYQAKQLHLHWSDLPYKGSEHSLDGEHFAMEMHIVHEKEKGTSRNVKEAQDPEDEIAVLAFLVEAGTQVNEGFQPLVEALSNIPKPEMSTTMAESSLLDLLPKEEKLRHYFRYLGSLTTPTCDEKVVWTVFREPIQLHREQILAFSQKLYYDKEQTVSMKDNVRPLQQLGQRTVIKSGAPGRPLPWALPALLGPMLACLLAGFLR
Description: Inhibition constant of anion against human carbonic anhydrase isozyme hCA IV

Carbonic anhydrase V [3] = molecular target: T1, Carbonic anhydrase V; assay: Inhibition constant against human carbonic anhydrase isozyme hCA V; format: protein assay
Carbonic anhydrase 4 [4] = molecular target: T2, Carbonic anhydrase 4; assay: Inhibition constant against human carbonic anhydrase isozyme hCA IV

SMILES | Ki (Carbonic anhydrase V [1]; read-out: Ki) | Ki (Carbonic anhydrase 9) | Ki (Carbonic anhydrase 4 [2]) | Ki (Carbonic anhydrase V [1]) | Ki (Carbonic anhydrase V [3]) | Ki (Carbonic anhydrase 4 [4])
O=C(O)O [BICARBONATE] | 82 mM and 95 mM | 13 mM | 6.6 mM and 5.7 mM | – | – | –
Br [BROMIDE] | 50 mM | 16 mM | 0.09 mM | – | – | –
N#CO [CYANATE] | 0.02 mM | 0.04 mM | 0.61 mM | – | – | –
F [FLUORIDE ION] | 241 mM | 48 mM | 0.07 mM | – | – | –
Cl [HYDROCHLORIC ACID] | – | 33 mM | 0.09 mM | 156 mM | – | –
S [HYDROGEN SULFIDE] | – | 0.007 mM | 3.9 mM | 0.02 mM | – | –
I [IODIDE] | – | 7 mM | 0.08 mM | 25 mM | – | –
O=[N+]([O-])O [NITRIC ACID] | – | 46 mM | 58.7 mM | 16 mM | – | –
O=NO [NITROUS ACID] | 16 mM | – | 30.8 mM | – | – | –
OB(O)c1ccccc1 [PHENYLBORONIC ACID] | – | – | – | – | 4.5 mM | 0.00088 mM
NS(=O)(=O)O [SULFAMATE] | – | – | – | – | 0.12 mM | 0.00093 mM
O=S(=O)(O)O [SULFURIC ACID] | – | – | 9 mM | 680 mM | – | –
O=S(O)O [SULFUROUS ACID] | 65 mM | – | 13.2 mM | – | – | –
N#CS [THIOCYANIC ACID] | 0.74 mM | 0.13 mM | 39 mM | – | – | –
